In article PMC6337126, “Thiophene Derivatives as Anticancer Agents and Their Delivery to Tumor Cells Using Albumin Nanoparticles” (Molecules, 2019):
In brackets after ≈: the same amount, converted by molar mass. Several values for one entry are separate records, joined by “and”; a condition that tells them apart may be missing. Equal entries are not always repeated. Where two headings read alike, the source gives them in different places. Blank lines part the entries; values can stand above or below the compound they belong to.

Experiments:
[1] = Stability of TP 5 at different temperatures by HPLC; type: physicochemical; conditions: for Detected Concentration: calculated concentration 200.0 μg/mL, single replicates
Protocol: (§1) In order to investigate the solubility and stability of TP 5, a certain amount of TP 5 was dissolved in several solvents (deionized water, PBS buffered solution pH 7.4, ethanol, ethyl acetate, and dichloromethane) and make it saturate. The solubility was measured by HPLC. In addition, for the stability of TP 5, 200.0 μg/mL of TP 5 was placed in different temperature (25.0, 40.0 and 60.0) and the concentration was detected and compared with practical concentration.

[2] = Solubility of TP 5 in solvents by HPLC; type: physicochemical
Protocol: as §1

[3] = system: SMMC-7721; test: Cytotoxicity of TP 5-NPs in vitro (MTT); type: cell-based
Protocol: (§2) The cytotoxicity of TP 5-NPs in two cell lines in vitro was assessed. Briefly, cells with a density of 8 × 10^4 cells per wells were placed and cultured in 96-well plates. After incubated 24 h at 37 °C, 100 μL of medium containing different concentrations of TP 5-NPs or TP 5 (10.0, 20.0, 30.0, 40.0 and 50.0 μg/mL) was added to each well and cultured another 24, 48 or 72 h at 37 °C (wells containing the normal medium without formulation were regarded as controls). After that, 10.0 μL of MTT (5.0 mg/mL) was added into each well and incubated for 4.0 h. Finally, the medium was removed and 100.0 μL of DMSO was added. OD values were tested by microplate reader at 490 nm when the formazan precipitate was completely dissolved.

[4] = system: HepG2; test: Cytotoxicity of TP 5-NPs in vitro (MTT); type: cell-based
Protocol: as §2

[5] = system: SMMC-7721; test: ROS assay (DCFH-DA); type: cell-based; conditions: SMMC-7721, 30.0 μg/mL, 12 h
Protocol: (§3) The experimental procedure was similar to the part 4.2.8. Similarly, HepG2 and SMMC-7721 cell were seeded in a 12-well plate and incubated for 24 h. 30.0 μg/mL of TP 5-NPs or TP 5 was added and cultured for another 12 h. After that, 10 μM 2′, 7′-dichlorodihydrofluorescein diacetate (DCFH-DA, Sigma-Aldrich, Saint Louis, MO, USA) was added and incubated for 10.0 min in the dark. Inversed fluorescent microscope was applied to observe fluorescence images.

[6] = system: HepG2; test: ROS assay (DCFH-DA); type: cell-based; conditions: HepG2, 30.0 μg/mL, 12 h
Protocol: as §3

[7] = system: SMMC-7721; test: Mitochondrial transmembrane potential assay (JC-1); type: cell-based; conditions: SMMC-7721, 30.0 μg/mL, 12 h
Protocol: (§4) In general, cell apoptosis is often accompanied by the transformation of mitochondrial transmembrane potential (ΔΨm). […] In order to verify whether TP 5-NPs can induce cancer cell apoptosis, ΔΨm was measured. Firstly, HepG2 and SMMC-7721 cell with a density of 2 × 10^5 cells per wells in 1.0 mL of medium all were seeded in a 12-well plate and incubated for 24 h. After that, 30.0 μg/mL of TP 5-NPs or TP 5 was added and cultured for another 12 h, in which wells containing normal medium without drugs were regarded as controls. Cells were washed using PBS for three times, incubated for 10 min in 10.0 μg/mL of JC-1 dye in the dark. The level of mitochondrial depolarization was observed by inverted fluorescent microscope and quantitatively analyzed by imaging software Image J [26].

[8] = system: HepG2; test: Mitochondrial transmembrane potential assay (JC-1); type: cell-based; conditions: HepG2, 30.0 μg/mL, 12 h
Protocol: as §4

[9] = system: SMMC-7721; test: MTT screening assay of TPs; type: cell-based
Protocol: (§5) HepG2 and SMMC-7721 cell lines were cultured and grown in complete DMEM containing 10% FBS and 1% streptomycin and penicillin in 5% CO2 at 37 °C. TPs were fabricated using the method as described previously. The cytotoxicity of TPs in HepG2 and SMMC-7721 cell in vitro was evaluated by MTT assay. Firstly, cells with a density of 8 × 10^4 cells per wells were placed and cultured in 96-well plates and incubated 24 h at 37 °C. Then, 100 μL of TPs DMEM solution (30 μg/mL) was added into each well. After incubated 24 h, 10 μL of MTT solution (5.0 mg/mL) was added and incubated 4 h. Finally, the medium was removed, 100 μL of DMSO was added and OD values were tested using microplate reader (Synergy4, multi-mode microplate reader, BioTek, Winooski, VT, USA) at 490 nm when the formazan precipitate was completely dissolved. It is worth noting that wells containing normal medium without TPs were regarded as controls. In addition, wells which add the medium with paclitaxel were regarded as a positive control.

[10] = system: HepG2; test: MTT screening assay of TPs; type: cell-based
Protocol: as §5

[11] = In vitro drug release by dialysis method; type: physicochemical; conditions: over 120 h, PBS containing 20.0% ethanol, 37 °C
Protocol: The detailed process was as follows: first, TP 5 and TP 5-NPs were all dissolved or dispersed in 1.0 mL PBS (pH 7.4), respectively. Then, they were placed in a dialysis bag (the molecule weight cutoff was 12.0 kD). After that, they were placed in 50.0 mL release medium PBS containing 20.0% v/v ethanol and maintained at 37 °C with continuous stirring at 150 rpm. Sink conditions were maintained. At predetermined time intervals, 1.0 mL release medium was withdrawn and replaced with 1.0 mL 37 °C fresh release medium. Finally, the released capacity of TP 5 was detected by HPLC.

thermal stability of structure ([1]; temperature increased to 60 °C, HPLC): stable | solubility ([2]; PBS containing 20.0% v/v ethanol, PBS pH 7.4 containing 20.0% v/v ethanol, read-out: Solubility in release (acceptor) medium): 88.2 µg/mL (≈ 250 µM) | solubility ([2]; aqueous buffer, thermodynamic from solid, PBS buffered solution (pH 7.4), 25 °C, read-out: Solubility): 27.6 µg/mL (≈ 78.5 µM) | solubility ([2]; deionized water, 25 °C, water, thermodynamic from solid, read-out: Solubility): 26.4 µg/mL (≈ 74.8 µM) | solubility ([2]; dichloromethane, 25 °C, organic solvent or mixture, thermodynamic from solid, read-out: Solubility): > 13000 µg/mL | solubility ([2]; ethanol, 25 °C, organic solvent or mixture, thermodynamic from solid, read-out: Solubility): 2480 µg/mL (≈ 7040 µM) | solubility ([2]; ethyl acetate, 25 °C, organic solvent or mixture, thermodynamic from solid, read-out: Solubility): > 6800 µg/mL | drug released [11]: ~ 20%
Compound: Cc1cc2c(s1)C1=NC(=O)OC1(c1ccc(Cl)c(Cl)c1)CC2 (centres unmarked) [TP 5]
Detected Concentration ([1]; 25.0 °C): 201.18 µg/mL and 200.53 µg/mL and 199.88 µg/mL | Detected Concentration ([1]; 40.0 °C): 202.66 µg/mL and 200.05 µg/mL and 202.01 µg/mL | Detected Concentration ([1]; 60.0 °C): 202.28 µg/mL and 202.93 µg/mL and 201.19 µg/mL | cytotoxicity ([3]; SMMC-7721, 10.0-50.0 μg/mL, 24, 48 and 72 h): dose and time-dependent cytotoxicity | concentration above which cells were completely killed ([3]; SMMC-7721, MTT, 24, 48 and 72 h): exceeds 40.0 μg/mL | cytotoxicity ([4]; HepG2, 10.0-50.0 μg/mL, 24, 48 and 72 h): dose and time-dependent cytotoxicity | concentration above which cells were completely killed ([4]; HepG2, MTT, 24, 48 and 72 h): exceeds 40.0 μg/mL | levels of ROS [5]: higher than those of control cells | levels of ROS [6]: higher than those of control cells | JC-1 polymer/monomer (red/green) fluorescence ratio [7]: lower than those of controls | JC-1 polymer/monomer (red/green) fluorescence ratio [8]: lower than those of controls | antitumor activity compared with other TPs and paclitaxel ([9]; SMMC-7721, 30.0 μg/mL, 24 h): higher activity than other TPs including paclitaxel | antitumor activity compared with other TPs and paclitaxel ([10]; HepG2, 30.0 μg/mL, 24 h): higher activity than other TPs including paclitaxel

IC50 ([9]; Homo sapiens, SMMC-7721, 24 h): 35.3 µg/mL | IC50 ([10]; Homo sapiens, HepG2, 24 h): 35.9 µg/mL
Compound: CC(=O)O[C@H]1C(=O)[C@@]2(C)[C@H]([C@H](OC(=O)c3ccccc3)[C@]3(O)C[C@H](OC(=O)[C@H](O)[C@@H](NC(=O)c4ccccc4)c4ccccc4)C(C)=C1C3(C)C)[C@]1(OC(C)=O)CO[C@@H]1C[C@@H]2O [paclitaxel, reference compound]
